Measured values reported in patent publication US12486301B2, “8-fluoro-4-alkylumbelliferyl α-D-glucopyranoside, biological sterilization indicator including the same and its use in a method of determining efficacy of a sterilization process” (Solventum Intellectual Properties Company, priority 2019, dated 2025).
One block for each compound: values may come before it.

Tests used:
[1] = system: Geobacillus stearothermophilus spores (ATCC 7953); assay: Fluorescence from enzyme substrates incubated with Geobacillus stearothermophilus spores in culture media; type: cell-based; conditions: substrate 0.1 mg/mL, 60° C.
[2] = Enzyme substrate degradation in culture media at various temperatures (fluorescence); type: physicochemical; conditions: 0.3 mg/mL; for MEASURED FLUORESCENCE, RFU 70° C. 15 min: 70° C. dry heat block 15 min; for MEASURED FLUORESCENCE, RFU 100° C. 15 + 15 min: 100° C. 15 min, second time 15 min; for MEASURED FLUORESCENCE, RFU 100° C. 15 min: 100° C. heat block 15 min; for MEASURED FLUORESCENCE, RFU RT 15 min: room temperature (24.5° C.)
Method: Culture media was prepared by dissolving 5 g/L peptone C (BD 211921) and 12 g/L phytone peptone (BD BBL 211906) in deionized water. The pH was adjusted with 1 N NaOH or 0.1 N HCl, the media brought to volume, and then filter sterilized with a 0.22 micron PES filter. Stock solutions ([…]) of 8′-fluoro-4′-methylumbelliferyl-α-D-glucopyranoside, 6′-fluoro-4′-methylumbelliferyl-α-D-glucopyranoside, and 4-methylumbelliferyl-α-D-glucopyranoside were prepared in DMSO. The aforementioned substrates were added to culture media at a final concentration of 0.1 mg/ml and media were then 0.22 μm filter sterilized.
(§1) One milliliter of filter-sterilized culture media (pH 6) containing 0.3 mg/ml of 8′-fluoro-4′-methylumbelliferyl-[…]-D-glucopyranoside substrate was transferred to three 1.5 ml microcentrifuge tubes. One of the 1.5 ml tubes was kept at room temperature (24.5° C.). The second tube was placed in a 70° C. dry heat block for 15 min and the third tube was placed in a 100° C. heat block for 15 min. Tubes were kept at room temperature for 30 min following heat exposure, briefly vortexed and centrifuged to collect liquid. One hundred microliters of culture media with substrate from each of the tubes was transferred to two wells (100 microliters per well) of a black 96-well microtiter plate with (NUNC #165301, Thermo Fisher Scientific). The top of the plate was covered with an optically clear sealing film (product #4311971, Applied Biosystems Corporation). Fluorescence readings (360 nm excitation/455 nm emission at 50% gain) were taken from the top of the plate.
(§2) The tube exposed to 100° C. (with 800 ul of remaining media with substrate) was exposed for a second time to 100° C. for 15 min in a dry heat block. One hundred microliters of culture media with substrate from the tube was transferred to two wells (100 microliters per well) of a black 96-well microtiter plate with (NUNC #165301, Thermo Fisher Scientific). The top of the plate was covered with an optically clear sealing film (product #4311971, Applied Biosystems Corporation). Fluorescence readings (360 nm excitation/455 nm emission at 50% gain) were taken from the top of the plate. In Table 9, the mean fluorescence values detected (RFU) for each of the heating conditions are reported.
as §1, with “7)” for “6)”
as §2, with “10,” for “9,”, “reported. […]” for “reported.”

[3] = pH 6 culture media, 5×10^3 spores
[4] = pH 6 culture media, 5×10^6 spores
[5] = pH 7 culture media, 5×10^3 spores
[6] = pH 7 culture media, 5×10^6 spores
[7] = pH 8 culture media, 5×10^3 spores
[8] = pH 8 culture media, 5×10^6 spores
[9] = pH 9 culture media, 5×10^3 spores
[10] = pH 9 culture media, 5×10^6 spores
[11] = pH 6 culture media, no spores, 360 nm excitation/455 nm emission

MEASURED FLUORESCENCE, RFU 70° C. 15 min ([2]; pH 6 culture media): 799.5 RFU | MEASURED FLUORESCENCE, RFU 100° C. 15 + 15 min ([2]; pH 6 culture media): 1114.5 RFU | MEASURED FLUORESCENCE, RFU 100° C. 15 min ([2]; pH 6 culture media): 957.5 RFU | MEASURED FLUORESCENCE, RFU RT 15 min [2, 11]: 751.5 RFU | MEASURED FLUORESCENCE, RFU 70° C. 15 min ([2]; pH 7 culture media): 759.5 RFU | MEASURED FLUORESCENCE, RFU 100° C. 15 + 15 min ([2]; pH 7 culture media): 1529 RFU | MEASURED FLUORESCENCE, RFU 100° C. 15 min ([2]; pH 7 culture media): 1195 RFU | MEASURED FLUORESCENCE, RFU RT 15 min ([2]; pH 7 culture media): 740.5 RFU | MEASURED FLUORESCENCE, RFU 70° C. 15 min ([2]; pH 8 culture media): 832 RFU | MEASURED FLUORESCENCE, RFU 100° C. 15 + 15 min ([2]; pH 8 culture media): 1543 RFU | MEASURED FLUORESCENCE, RFU 100° C. 15 min ([2]; pH 8 culture media): 1274 RFU | MEASURED FLUORESCENCE, RFU RT 15 min ([2]; pH 8 culture media): 774 RFU | MEASURED FLUORESCENCE, RFU 70° C. 15 min ([2]; pH 9 culture media): 905.5 RFU | MEASURED FLUORESCENCE, RFU 100° C. 15 + 15 min ([2]; pH 9 culture media): 1770.5 RFU | MEASURED FLUORESCENCE, RFU 100° C. 15 min ([2]; pH 9 culture media): 1343.5 RFU | MEASURED FLUORESCENCE, RFU RT 15 min ([2]; pH 9 culture media): 811.5 RFU
Compound: Cc1cc(=O)oc2c(F)c(O[C@H]3O[C@H](CO)[C@@H](O)[C@H](O)[C@H]3O)ccc12 [Example 1, 8′-Fluoro-4′-methylumbelliferyl […]-D-glucopyranoside]
MEASURED FLUORESCENCE, RFU +5 min [1, 3]: 1212 RFU | MEASURED FLUORESCENCE, RFU +30 min [1, 3]: 5600 RFU | MEASURED FLUORESCENCE, RFU 10 sec [1, 4]: 30514 RFU | MEASURED FLUORESCENCE, RFU +5 min [1, 4]: 34348 RFU | MEASURED FLUORESCENCE, RFU +10 min [1, 4]: 32547 RFU | MEASURED FLUORESCENCE, RFU +30 min [1, 4]: 30518 RFU | MEASURED FLUORESCENCE, RFU 10 sec [1, 5]: 886 RFU | MEASURED FLUORESCENCE, RFU 10 sec [1, 6]: 49649 RFU | MEASURED FLUORESCENCE, RFU +5 min [1, 6]: 54906 RFU | MEASURED FLUORESCENCE, RFU +10 min [1, 6]: 52619 RFU | MEASURED FLUORESCENCE, RFU +30 min [1, 6]: 49458 RFU | MEASURED FLUORESCENCE, RFU 10 sec [1, 7]: 729 RFU | MEASURED FLUORESCENCE, RFU +5 min [1, 7]: 971 RFU | MEASURED FLUORESCENCE, RFU +10 min [1, 7]: 1655 RFU | MEASURED FLUORESCENCE, RFU 10 sec [1, 8]: 39958 RFU | MEASURED FLUORESCENCE, RFU +5 min [1, 8]: 58746 RFU | MEASURED FLUORESCENCE, RFU +10 min [1, 8]: 58909 RFU | MEASURED FLUORESCENCE, RFU +30 min [1, 8]: 55069 RFU | MEASURED FLUORESCENCE, RFU 10 sec [1, 9]: 655 RFU | MEASURED FLUORESCENCE, RFU +5 min [1, 9]: 663 RFU | MEASURED FLUORESCENCE, RFU +10 min [1, 9]: 831 RFU | MEASURED FLUORESCENCE, RFU +30 min [1, 9]: 2910 RFU | MEASURED FLUORESCENCE, RFU 10 sec [1, 10]: 15513 RFU | MEASURED FLUORESCENCE, RFU +5 min [1, 10]: 39862 RFU | MEASURED FLUORESCENCE, RFU +10 min [1, 10]: 55056 RFU | MEASURED FLUORESCENCE, RFU +30 min [1, 10]: 52276 RFU

MEASURED FLUORESCENCE, RFU 70° C. 15 min ([2]; pH 6 culture media): 774.5 RFU | MEASURED FLUORESCENCE, RFU 100° C. 15 + 15 min ([2]; pH 6 culture media): 888 RFU | MEASURED FLUORESCENCE, RFU 100° C. 15 min ([2]; pH 6 culture media): 829 RFU | MEASURED FLUORESCENCE, RFU RT 15 min [2, 11]: 751 RFU | MEASURED FLUORESCENCE, RFU 70° C. 15 min ([2]; pH 7 culture media): 809 RFU | MEASURED FLUORESCENCE, RFU 100° C. 15 + 15 min ([2]; pH 7 culture media): 893.5 RFU | MEASURED FLUORESCENCE, RFU 100° C. 15 min ([2]; pH 7 culture media): 862 RFU | MEASURED FLUORESCENCE, RFU RT 15 min ([2]; pH 7 culture media): 671 RFU | MEASURED FLUORESCENCE, RFU 70° C. 15 min ([2]; pH 8 culture media): 823.5 RFU | MEASURED FLUORESCENCE, RFU 100° C. 15 + 15 min ([2]; pH 8 culture media): 939 RFU | MEASURED FLUORESCENCE, RFU 100° C. 15 min ([2]; pH 8 culture media): 857.5 RFU | MEASURED FLUORESCENCE, RFU RT 15 min ([2]; pH 8 culture media): 788.5 RFU | MEASURED FLUORESCENCE, RFU 70° C. 15 min ([2]; pH 9 culture media): 862.5 RFU | MEASURED FLUORESCENCE, RFU 100° C. 15 + 15 min ([2]; pH 9 culture media): 1099 RFU | MEASURED FLUORESCENCE, RFU 100° C. 15 min ([2]; pH 9 culture media): 978.5 RFU | MEASURED FLUORESCENCE, RFU RT 15 min ([2]; pH 9 culture media): 694 RFU
Compound: Cc1cc(=O)oc2cc(O[C@H]3O[C@H](CO)[C@@H](O)[C@H](O)[C@H]3O)ccc12 [MUG, 4′-methylumbelliferyl-α-D-glucopyranoside]
MEASURED FLUORESCENCE, RFU +5 min [1, 3]: 585 RFU | MEASURED FLUORESCENCE, RFU +30 min [1, 3]: 1210 RFU | MEASURED FLUORESCENCE, RFU 10 sec [1, 4]: 4600 RFU | MEASURED FLUORESCENCE, RFU +5 min [1, 4]: 9209 RFU | MEASURED FLUORESCENCE, RFU +10 min [1, 4]: 10250 RFU | MEASURED FLUORESCENCE, RFU +30 min [1, 4]: 9996 RFU | MEASURED FLUORESCENCE, RFU 10 sec [1, 5]: 676 RFU | MEASURED FLUORESCENCE, RFU 10 sec [1, 6]: 10780 RFU | MEASURED FLUORESCENCE, RFU +5 min [1, 6]: 22443 RFU | MEASURED FLUORESCENCE, RFU +10 min [1, 6]: 26791 RFU | MEASURED FLUORESCENCE, RFU +30 min [1, 6]: 24911 RFU | MEASURED FLUORESCENCE, RFU 10 sec [1, 7]: 704 RFU | MEASURED FLUORESCENCE, RFU +5 min [1, 7]: 661 RFU | MEASURED FLUORESCENCE, RFU +10 min [1, 7]: 700 RFU | MEASURED FLUORESCENCE, RFU 10 sec [1, 8]: 12320 RFU | MEASURED FLUORESCENCE, RFU +5 min [1, 8]: 32993 RFU | MEASURED FLUORESCENCE, RFU +10 min [1, 8]: 51516 RFU | MEASURED FLUORESCENCE, RFU +30 min [1, 8]: 53517 RFU | MEASURED FLUORESCENCE, RFU 10 sec [1, 9]: 698 RFU | MEASURED FLUORESCENCE, RFU +5 min [1, 9]: 634 RFU | MEASURED FLUORESCENCE, RFU +10 min [1, 9]: 621 RFU | MEASURED FLUORESCENCE, RFU +30 min [1, 9]: 1153 RFU | MEASURED FLUORESCENCE, RFU 10 sec [1, 10]: 5777 RFU | MEASURED FLUORESCENCE, RFU +5 min [1, 10]: 19462 RFU | MEASURED FLUORESCENCE, RFU +10 min [1, 10]: 43381 RFU | MEASURED FLUORESCENCE, RFU +30 min [1, 10]: 64660 RFU
